Ends that are not written are not given here.

Here are results for 17 compounds from paper PMC8532876, “Can Immobilized Artificial Membrane Chromatography Support the Characterization of Antimicrobial Peptide Origin Derivatives?” (Antibiotics, 2021).

Experiment in the first series: not given
The note with it: model substances of the IAM-HPLC calibration curve, protocol of Valko and coworkers ref 13, 14; cited from earlier work. Set-up: method as in PMID 10906732, PMID 27084527.
`CC(=O)c1ccccc1` [acetable]: the “CHIIAM of calibration set reference substances” value is recorded as 17.20.

In the case of `CC(=O)Nc1ccc(O)cc1` [acetaminophen], the “CHIIAM of calibration set reference substances” value was 2.90. For the compound `CC(=O)Nc1ccccc1` [acetanilidine], the “CHIIAM of calibration set reference substances” value is 11.50. With `CCCC(=O)c1ccccc1` [butyrophenone], the “CHIIAM of calibration set reference substances” value was 32.00. With `CCCCCCC(=O)c1ccccc1` [heptanophenone], the “CHIIAM of calibration set reference substances” value is listed as 45.70. Take `CCCCCC(=O)c1ccccc1` [hexanophenone]: the “CHIIAM of calibration set reference substances” value is reported as 41.80. Regarding `CCCCCCCC(=O)c1ccccc1` [octanophenone], the “CHIIAM of calibration set reference substances” value is 49.4. `CCC(=O)c1ccccc1` [propiohenone]: the “CHIIAM of calibration set reference substances” value is 25.90.

With `CCCCC(=O)c1ccccc1` [valerophenone], the “CHIIAM of calibration set reference substances” value is recorded as 37.30.

Another series is described as follows: IAM-HPLC, chromatographic hydrophobicity index on an immobilized artificial membrane column. Format: physicochemical. The note with it: IAM.PC.DD2 column, gradient 0–85% acetonitrile in 10-mM phosphoric buffer pH 7.4, 30.0 °C; calculated from retention time with calibration curve. On the procedure:
All HPLC experiments were carried out using a Prominence-1 LC-2030C 3D HPLC system (Shimadzu, Tokyo, Japan) equipped with an IAM.PC.DD2 column (10 mm × 4.6 mm; particle size 10.0 µm with an IAM guard column; Regis Technologies, Austin Ave, Morton Grove, IL, USA) and diode array detection (DAD). The HPLC system was controlled by LabSolution software (version 5.90, Shimadzu, Japan). The stock solutions of the solutes were diluted to obtain 100-µg/mL concentrations, and the injected volume was 10 µL, which was used for the analytes. The IAM-HPLC analyses were performed with a linear gradient of 0–85% in phase B (where phase A was 10-mM phosphoric buffer at pH 7.4, and phase B was acetonitrile) at a flow rate of 1.5 mL/min. The ultrapure water used for the mobile phase preparation was purified by the Millipore Direct-Q 3 UVWater Purification System (Millipore Corporation, Bedford, MA, USA). The other reagents used for the preparation of the mobile phase: acetonitrile, sodium phosphate dibasic dehydrate, and sodium phosphate monobasic monohydrate (Sigma-Aldrich, Steinheim, Germany) were analytical grade. During the chromatographic analysis, the temperature of the column was constant at 30.0 °C, and the analysis time was 6.5 min. The CHIAM indices of the target solutes were obtained using a calibration set of the reference substances using the protocol developed by Valko and coworkers. The reference substances were purchased, respectively: octanonophenone and butyrophenone acetanilide (Alfa Aesar, Haverhill, MA, USA); acetaminophen, acetophenone, levofloxacin, and ciprofloxacin (Sigma-Aldrich, Steinheim, Germany); and heptanophenone, hexanophenone, valerophenone, propiophenone, and acetophenone (Acros Organic, Pittsburg, PA, USA). Figure 2 presents a correlations plot of the CHIIAM indices of the model substances and experimentally determined retention times.
On to `O=C(O)c1cn(C2CC2)c2cc(N3CCNCC3)c(F)cc2c1=O` [Ciprofloxacin], for which the CHIIAM is 19.70. With `C[C@H]1COc2c(N3CCN(C)CC3)c(F)cc3c(=O)c(C(=O)O)cn1c23` [Levofloxacin], the CHIIAM is given as 24.88.

Take “DVIKKVASVIG-NH2 [(4–14) Citropin, analog of citropin 1.1]”: the CHIIAM is listed as 27.85. Turning to “DVIKKVASVIGGL-NH2 [(4–16) Citropin, analog of citropin 1.1]”, the CHIIAM is 38.24. Regarding “GLFDVIK-NH2 [(1–7) Citropin, analog of citropin 1.1]”, the CHIIAM was 42.15. Take “GLFDVIKASVIGGL-NH2 [(1–7)–(10–16) Citropin, analog of citropin 1.1]”: the CHIIAM was 37.09. “GLFDVVIGGL-NH2 [(1–5)–(12–16) Citropin, analog of citropin 1.1]”: the CHIIAM is reported as 28.66. Regarding “KVASVIGGL-NH2 [(8–16) Citropin, analog of citropin 1.1]”, the CHIIAM was 45.95.
